{
  "source": "patent US20090196862A1",
  "about": "“High dosage Vitamin D” (priority 2008, published 2009)",
  "key": {"[1]": {"settings": "literature report; cited from earlier work"}, "[2]": {"test_system": "atherosclerotic plaque", "experiment": "Coronary / atherosclerotic plaque by heart CT scan score in patients", "format": "in vivo, human", "settings": "for effect on plaques (heart CT scan score): patients with coronary plaques", "protocol": "In clinical practice with regard to plaque formation, the present inventor observed that blood serum levels of D3 of about 50 ng/mL provide sufficient effect. Below 50 ng/mL, there is an incremental effect, with a very small effect as low as 20 ng/mL, but a significant effect emerging at 40-45 ng/mL. By 50 ng/mL, there is a significant and often sufficient effect. About 50 ng/mL of 25-hydroxy-vitamin D [25(OH)D] in blood serum provides a reasonably strong effect against plaque buildup."}, "[3]": {"experiment": "Clinical observation of lipids, inflammatory levels and blood pressure on oral D3", "format": "in vivo, human", "settings": "oral administration", "from_the_text": "The present inventor observed lipid effects (reduced triglycerides, a raise in the levels of HDL [“good cholesterol”] and a reduction in LDL particles [“bad cholesterol”]) from oral supplementation of an oil-based preparation of D3."}},
  "data": [
    {"compound": "C=C1CC[C@H](O)C/C1=C/C=C1\\CCC[C@]2(C)[C@@H]([C@H](C)/C=C/[C@H](C)C(C)C)CC[C@@H]12", "note": "[D2, ergocalciferol]", "values": [
      {"measurement": "conversion of D2 to D3 in humans", "setting": "[1]", "value": "≤ 70", "unit": "%"}
    ]},
    {"compound": "C=C1CC[C@H](O)C/C1=C/C=C1\\CCC[C@]2(C)[C@@H]([C@H](C)CCCC(C)C)CC[C@@H]12", "note": "[D3, cholecalciferol]", "values": [
      {"measurement": "blood serum level of D3 at which a significant effect emerges (plaque formation)", "setting": "[2]; clinical practice", "value": "40 to 45", "unit": "ng/mL"},
      {"measurement": "blood serum level of D3 providing sufficient effect on plaque formation", "setting": "[2]; clinical practice", "value": "about 50 ng/mL"},
      {"measurement": "blood serum level of D3 with a very small effect (plaque formation)", "setting": "[2]; clinical practice", "value": 20, "unit": "ng/mL"},
      {"measurement": "effect on plaques (heart CT scan score)", "setting": "[2]; listed as oral D3", "value": "positive effect"},
      {"measurement": "effect on plaques (heart CT scan score)", "setting": "[2]; listed as vitamin D", "value": "decreased evidence of plaques"},
      {"measurement": "blood pressure", "setting": "[3]", "value": "reductions"},
      {"measurement": "inflammatory levels", "setting": "[3]", "value": "reductions"}
    ]}
  ]
}
